Data: ChEMBL document CHEMBL5260857, “Identification of specific carbonic anhydrase inhibitors via in situ click chemistry, phage-display and synthetic peptide libraries: comparison of the methods and structural study” (RSC Med Chem, 2023)
Where a SMILES comes first, the peptide text is derived from it. The star is where a group is joined. X2 = NS(=O)(=O)c1ccc(CCNC(=O)Cn2cc(COC(=O)*)nn2)cc1; X1 = NS(=O)(=O)c1ccc(CO/N=C/C(=O)*)cc1

Target: Carbonic anhydrase 9 (Homo sapiens, UniProt Q16790)
Experiment: Inhibition of human carbonic anhydrase 9 assessed as Ki by stopped-flow carbon dioxide hydration assay

Compound	Ki
C#Cc1ccc(S(N)(=O)=O)cc1	150 nM
CC(C)C[C@H](NC(=O)[C@H](CCC(N)=O)NC(=O)[C@H](Cc1ccc(O)cc1)NC(=O)[C@H](Cc1ccccc1)NC(=O)[C@@H](N)CCCCNC(=O)OCc1cn(CC(=O)NCCc2ccc(S(N)(=O)=O)cc2)nn1)C(=O)N[C@@H](Cc1ccc(O)cc1)C(=O)N[C@@H](Cc1ccccc1)C(N)=O (H-K(X2)FYQLYF-NH2)	69 nM
CC(C)C[C@@H](C(N)=O)n1cc(-c2ccc(S(N)(=O)=O)cc2)nn1	11 nM
CC(C)C[C@H](NC(=O)[C@H](CO)NC(=O)/C=N/OCc1ccc(S(N)(=O)=O)cc1)C(=O)N1CCC[C@H]1C(=O)N[C@@H](Cc1ccccc1)C(=O)N[C@H](C(=O)N[C@H](C(=O)N[C@@H](Cc1ccc(O)cc1)C(=O)N[C@@H](CC(N)=O)C(N)=O)C(C)C)[C@@H](C)O (X1-SLPFTVYN-NH2)	1370 nM
C[C@H](NC(=O)[C@H](Cc1cnc[nH]1)NC(=O)[C@H](C)NC(=O)[C@H](CCCCN)NC(=O)[C@H](Cc1ccc(O)cc1)NC(=O)[C@@H]1CCCN1C(=O)[C@H](Cc1cnc[nH]1)NC(=O)/C=N/OCc1ccc(S(N)(=O)=O)cc1)C(=O)N[C@@H](Cc1cnc[nH]1)C(N)=O (X1-HPYKAHAH-NH2)	358 nM
NC(=O)[C@H](Cc1ccc(O)cc1)NC(=O)[C@H](Cc1ccc(O)cc1)NC(=O)[C@H](Cc1ccccc1)NC(=O)[C@H](Cc1c[nH]c2ccccc12)NC(=O)[C@H](Cc1ccccc1)NC(=O)[C@H](Cc1ccccc1)NC(=O)[C@@H](N)CCCCNC(=O)OCc1cn(CC(=O)NCCc2ccc(S(N)(=O)=O)cc2)nn1 (H-K(X2)FFWFYY-NH2)	104 nM

Second part, the molecule after the results:

Ki	Compound
2500 nM	CC(C)C[C@H](NC(=O)[C@H](CO)NC(=O)/C=N/OCc1ccc(S(N)(=O)=O)cc1)C(N)=O
1800 nM	NC(=O)[C@H](CO)NC(=O)/C=N/OCc1ccc(S(N)(=O)=O)cc1
2800 nM	CC(C)C[C@H](NC(=O)[C@H](CO)NC(=O)/C=N/OCc1ccc(S(N)(=O)=O)cc1)C(=O)N1CCC[C@H]1C(N)=O
844 nM	NOCc1ccc(S(N)(=O)=O)cc1
936 nM	CC(C)C[C@H](NC(=O)[C@H](CO)NC(=O)/C=N/OCc1ccc(S(N)(=O)=O)cc1)C(=O)N1CCC[C@H]1C(=O)N[C@@H](Cc1ccccc1)C(N)=O (X1-SLPF-NH2)
1200 nM	[N-]=[N+]=NCC(=O)NCCc1ccc(S(N)(=O)=O)cc1
